Results reported in patent US20260217701A1, “SELECTIVE BET INHIBITORS AND USES THEREOF” (Tay Therapeutics Limited, priority 2022, published 2026).

System: lupus
Test: SLE (lupus) model: blood urea nitrogen (BUN) in serum
Type: in vivo, MRL/MpJ-Faslpr mice
Conditions: Week 19
Experimental: Female MRL/MpJ-Faslpr mice (The Jackson Laboratory) were used to assess the efficacy of Compound A in treating lupus. Starting when animals were 10 weeks of age, protein concentration in urine was measured using urine dipsticks.
At the start of the study, each group in the study had two animals that were 9 weeks old, and all others were 10 weeks old. Dosing of all animals with the test compounds began when the older animals were 11 weeks old. Starting on Day 1, in Groups 1-4, vehicle or Compound A was administered per os (PO) […] (QD) as described above in Table 33. […] Dosing was at a consistent time each dosing day throughout the study.
Compound A may be formulated as illustrated in Experimental Method A (see Table 2E.). […] A stock solution of Compound A in DMSO (stock solution concentration of Compound A of 40 mg/mL) was prepared and aliquots for weekly preparations were frozen at −20° C. On each preparation day, a stock solution aliquot was thawed and diluted with other vehicle components to the desired concentration. Formulated Compound A and vehicle were at room temperature for dosing.
The study began when the older animals were 11 weeks old, and concluded when the older animals were 19 weeks old. Body weight was recorded once a week, with the exception of two weight measurements taken the first week of the study (when the older animals were 11 weeks old). Proteinuria was measured in the urine of animals with urine dipsticks once a week, starting when the older animals were 10 weeks old. […] Blood samples were taken retro-orbitally at the start of the study to establish a baseline (15 animals, 3 per group), and when the older animals were 16 weeks (all animals) and when animals were 19 weeks (all animals) at the conclusion of the study. Blood urea nitrogen (BUN) was measured in all animals at study termination in blood samples. After blood collection, animals were euthanized, perfused with PBS, and the left kidneys were collected and weighed and fixed in 10% buffered formalin. Left kidneys were then processed to a formalin-fixed, paraffin-embedded (FFPE) block, and histology was analyzed in Periodic Acid-Schiff-stained sections (1 section per slide), using the criteria described in Alperovich et al., Lupus, 16:18-24 (2007). Right kidneys were weighed and snap-frozen at −80° C. Spleens were also collected and weighed. SLE in animals treated with a BET inhibitor and vehicle.
BUN provides important information about how well kidneys are working. A BUN test measures the amount of urea nitrogen in the blood and indicates how much urea has been processed by the kidneys and is indicative of renal competency. Urea is a waste product that is excreted in urine.

Cn1cc(-c2ccccc2)c(-c2cn(C)c(=O)c3[nH]c(-c4cnn(C(F)(F)F)c4)cc23)cc1=O [Compound A, 6-methyl-4-(1-methyl-2-oxo-5-phenyl-1,2-dihydropyridin-4-yl)-2-(1-(trifluoromethyl)-1H-pyrazol-4-yl)-1,6-dihydro-7H-pyrrolo[2,3-c]pyridin-7-one]
BUN serum concentration (Compound A 1 mg/kg PO QD): 18.0 mg/dL | BUN serum concentration (Compound A 3 mg/kg PO QD): 16.8 mg/dL | BUN serum concentration (Compound A 10 mg/kg PO QD): 11.0 mg/dL | Blood urea nitrogen (BUN) concentration in serum (highest dose (10 mg/mL)): 11 mg/dL
